Experimental data: PMC12310023 (PLOS Neglected Tropical Diseases, 2025)

Assays:
[1] = Liver microsome stability; settings: mouse, pooled liver microsomes
CYP3A4 [2] = target: T1, CYP3A4 (Homo sapiens, UniProt P08684); assay: in vitro; settings: recombinant CYP3A4 supersomes
Cav1.2 (L-type) = Cav1.2 (L-type) (Homo sapiens, UniProt Q13936); assay: Bioprofiling panel functional assay; assay type: cell-based; settings: 6 pt dilutions starting at 10 μM; read-out: IC50, antagonist readout
[3] = tested on: micronuclei in interphase cells; assay: In vitro micronucleus (IVMN) test
[4] = Stability of M2 hemiaminal in buffer; assay type: physicochemical; settings: pH 6.8 phosphate buffer, ambient temperature
CYP3A4 [5] = target: T1, CYP3A4; assay: CYP reaction phenotyping, recombinant supersomes
CYP2C9 = CYP2C9 (Homo sapiens, UniProt P11712); assay: CYP reaction phenotyping, recombinant supersomes
Chain of CYP2C9 (P11712 whole entry): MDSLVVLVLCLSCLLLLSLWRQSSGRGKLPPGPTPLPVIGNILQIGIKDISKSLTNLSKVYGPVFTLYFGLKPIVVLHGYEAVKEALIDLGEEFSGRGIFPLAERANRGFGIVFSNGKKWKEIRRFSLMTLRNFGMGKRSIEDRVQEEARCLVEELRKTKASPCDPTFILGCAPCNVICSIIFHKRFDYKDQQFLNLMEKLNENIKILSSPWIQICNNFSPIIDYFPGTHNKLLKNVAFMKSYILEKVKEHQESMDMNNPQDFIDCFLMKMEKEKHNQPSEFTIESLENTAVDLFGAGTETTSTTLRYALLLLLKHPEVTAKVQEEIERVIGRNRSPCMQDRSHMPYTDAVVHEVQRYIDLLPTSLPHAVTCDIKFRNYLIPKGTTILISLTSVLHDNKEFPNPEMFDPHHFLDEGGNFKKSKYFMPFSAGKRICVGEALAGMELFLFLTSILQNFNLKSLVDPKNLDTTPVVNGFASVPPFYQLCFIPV

HsSrC = HsSrC (Homo sapiens, UniProt P12931); assay: SrC enzyme inhibition; assay type: biochemical
Chain of HsSrC (P12931 whole entry): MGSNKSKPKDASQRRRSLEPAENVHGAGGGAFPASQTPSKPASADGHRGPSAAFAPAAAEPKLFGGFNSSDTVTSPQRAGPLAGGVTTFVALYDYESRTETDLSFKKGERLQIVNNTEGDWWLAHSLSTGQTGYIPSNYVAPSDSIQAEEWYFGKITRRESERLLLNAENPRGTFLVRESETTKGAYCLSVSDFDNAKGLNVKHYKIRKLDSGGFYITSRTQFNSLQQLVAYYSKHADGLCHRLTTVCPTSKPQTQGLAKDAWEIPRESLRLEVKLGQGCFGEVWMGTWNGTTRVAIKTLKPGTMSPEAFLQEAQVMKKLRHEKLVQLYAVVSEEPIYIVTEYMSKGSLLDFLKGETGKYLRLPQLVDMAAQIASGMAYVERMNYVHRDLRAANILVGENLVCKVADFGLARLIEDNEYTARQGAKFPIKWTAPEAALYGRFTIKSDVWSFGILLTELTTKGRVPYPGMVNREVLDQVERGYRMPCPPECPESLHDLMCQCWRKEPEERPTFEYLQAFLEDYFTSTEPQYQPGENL
From the text: […]. […] All other methods are specified in S1 File.

Cytotoxicity = settings: human, CRL-8155 B-lymphocyte cell line
A3 [6] = target: T2, A3 (Homo sapiens, UniProt P0DMS8); assay: Cerep cellular and nuclear receptor functional assay
T2 sequence (P0DMS8 1-318): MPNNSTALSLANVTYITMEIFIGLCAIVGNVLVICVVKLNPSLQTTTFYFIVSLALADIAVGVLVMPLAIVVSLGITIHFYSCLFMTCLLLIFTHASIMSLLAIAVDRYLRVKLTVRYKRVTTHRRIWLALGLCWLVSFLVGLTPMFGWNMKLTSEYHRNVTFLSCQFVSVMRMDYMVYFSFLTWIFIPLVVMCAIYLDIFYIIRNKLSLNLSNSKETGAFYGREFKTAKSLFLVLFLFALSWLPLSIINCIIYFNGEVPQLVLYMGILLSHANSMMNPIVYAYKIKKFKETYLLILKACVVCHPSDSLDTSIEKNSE

[7] = Plasma concentrations in calf model; assay type: in vivo; settings: after BKI-1708 5 mg/kg BID
CYP2C19 [8] = target: T3, CYP2C19 (Homo sapiens, UniProt P33261); assay: CYP reaction phenotyping, recombinant supersomes
T3 sequence (P33261 whole entry): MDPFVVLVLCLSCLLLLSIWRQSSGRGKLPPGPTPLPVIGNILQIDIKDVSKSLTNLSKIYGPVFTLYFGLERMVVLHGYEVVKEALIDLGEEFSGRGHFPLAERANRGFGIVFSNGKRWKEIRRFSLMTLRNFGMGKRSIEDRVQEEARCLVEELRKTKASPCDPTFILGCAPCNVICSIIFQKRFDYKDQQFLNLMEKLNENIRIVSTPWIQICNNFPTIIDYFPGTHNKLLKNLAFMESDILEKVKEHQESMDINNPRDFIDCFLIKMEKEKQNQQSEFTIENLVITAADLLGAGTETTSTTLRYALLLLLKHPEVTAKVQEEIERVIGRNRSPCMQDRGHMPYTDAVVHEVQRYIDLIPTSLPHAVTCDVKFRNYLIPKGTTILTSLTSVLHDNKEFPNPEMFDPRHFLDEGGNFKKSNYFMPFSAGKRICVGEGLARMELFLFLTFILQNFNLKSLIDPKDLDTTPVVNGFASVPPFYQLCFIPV

[9] = Liver microsome stability; settings: rat, pooled liver microsomes
[10] = Liver microsome stability; settings: dog, pooled liver microsomes
AT2 = target: T4, AT2 (Homo sapiens, UniProt P50052); assay: Cerep binding assay
T4 construct: Cerep (Eurofins, France)
T4 sequence (P50052 whole entry): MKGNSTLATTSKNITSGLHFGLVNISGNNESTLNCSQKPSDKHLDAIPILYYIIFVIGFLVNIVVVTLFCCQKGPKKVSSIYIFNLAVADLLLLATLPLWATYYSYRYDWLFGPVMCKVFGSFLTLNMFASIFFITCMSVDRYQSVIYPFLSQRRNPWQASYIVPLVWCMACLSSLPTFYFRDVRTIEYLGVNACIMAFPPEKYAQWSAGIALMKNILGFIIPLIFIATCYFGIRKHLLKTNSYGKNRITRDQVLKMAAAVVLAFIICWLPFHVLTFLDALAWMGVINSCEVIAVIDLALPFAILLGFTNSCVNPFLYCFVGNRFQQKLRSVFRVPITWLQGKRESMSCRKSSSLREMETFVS

CYP1A2 = target: T5, CYP1A2 (Homo sapiens, UniProt P05177); assay: in vitro; settings: recombinant CYP1A2 supersomes
T5 sequence (P05177 1-516): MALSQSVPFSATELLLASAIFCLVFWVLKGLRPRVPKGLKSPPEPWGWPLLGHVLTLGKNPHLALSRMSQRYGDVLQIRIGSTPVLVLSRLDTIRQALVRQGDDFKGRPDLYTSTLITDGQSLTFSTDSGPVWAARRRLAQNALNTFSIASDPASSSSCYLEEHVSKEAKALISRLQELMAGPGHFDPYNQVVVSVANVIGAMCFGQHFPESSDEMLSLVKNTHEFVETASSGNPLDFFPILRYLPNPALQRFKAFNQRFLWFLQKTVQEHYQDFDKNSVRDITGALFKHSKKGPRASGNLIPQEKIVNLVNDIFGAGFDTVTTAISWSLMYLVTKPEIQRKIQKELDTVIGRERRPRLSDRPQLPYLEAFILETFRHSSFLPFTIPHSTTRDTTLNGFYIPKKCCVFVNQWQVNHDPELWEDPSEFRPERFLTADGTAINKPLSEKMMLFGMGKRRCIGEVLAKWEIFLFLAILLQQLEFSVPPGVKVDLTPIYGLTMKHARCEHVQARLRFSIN

Hepatocyte stability = settings: human
CYP2C19 [11] = target: T3, CYP2C19; assay: in vitro; settings: recombinant CYP2C19 supersomes
PPARУ = target: T6, PPARУ (Homo sapiens, UniProt P37231); assay: Cerep cellular and nuclear receptor functional assay; assay type: cell-based
T6 construct: Cerep (Eurofins, France)
T6 sequence (P37231 1-505): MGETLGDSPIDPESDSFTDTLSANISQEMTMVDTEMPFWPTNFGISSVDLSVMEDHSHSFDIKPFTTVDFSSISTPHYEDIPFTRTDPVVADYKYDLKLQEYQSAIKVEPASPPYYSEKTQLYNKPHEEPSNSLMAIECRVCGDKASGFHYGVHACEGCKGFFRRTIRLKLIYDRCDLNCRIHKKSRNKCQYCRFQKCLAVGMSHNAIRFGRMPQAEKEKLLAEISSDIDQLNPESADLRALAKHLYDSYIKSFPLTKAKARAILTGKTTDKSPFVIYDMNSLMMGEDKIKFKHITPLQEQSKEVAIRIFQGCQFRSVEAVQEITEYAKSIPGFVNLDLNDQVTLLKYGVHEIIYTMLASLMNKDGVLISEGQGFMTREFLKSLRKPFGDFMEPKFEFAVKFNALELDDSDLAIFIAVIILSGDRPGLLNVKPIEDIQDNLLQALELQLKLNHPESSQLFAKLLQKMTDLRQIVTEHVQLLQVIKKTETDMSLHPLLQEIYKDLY

A3 [12] = target: T2, A3; assay: Cerep binding assay; set-up: Cerep (Eurofins, France); settings: agonist radioligand, mean, read-out: % inhibition of control specific binding

T1 sequence (P08684 whole entry): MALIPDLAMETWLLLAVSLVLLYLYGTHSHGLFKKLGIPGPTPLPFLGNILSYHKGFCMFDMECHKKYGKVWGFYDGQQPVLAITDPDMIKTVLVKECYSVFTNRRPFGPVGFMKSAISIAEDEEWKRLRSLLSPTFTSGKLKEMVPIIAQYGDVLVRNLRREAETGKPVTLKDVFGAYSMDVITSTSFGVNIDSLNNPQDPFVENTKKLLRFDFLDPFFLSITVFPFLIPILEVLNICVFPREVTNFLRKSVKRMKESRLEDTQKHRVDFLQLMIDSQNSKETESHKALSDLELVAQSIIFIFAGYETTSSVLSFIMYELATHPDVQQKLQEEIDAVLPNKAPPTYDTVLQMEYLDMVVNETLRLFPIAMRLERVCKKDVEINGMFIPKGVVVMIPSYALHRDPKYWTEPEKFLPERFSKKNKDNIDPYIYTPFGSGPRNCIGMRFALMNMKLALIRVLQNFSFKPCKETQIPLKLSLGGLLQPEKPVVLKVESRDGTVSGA

CC1(C)Cn2nc(-c3ccc4cc(OC5CC5)ccc4c3)c(C(N)=O)c2NC1O (centres unmarked) [M2]
CLint scaled [1]: 75 mL/min/kg
half-life [1]: 1.97 h
microsomal CLint [1]: 23.6 µL/min/mg
CLint scaled (CYP3A4 [2]): 5.02 mL/min/kg
half-life (CYP3A4 [2]): 0.817 h
IC50 (Cav1.2 (L-type)): 8.1 µM
IVMN test result [3]: negative
time hemiaminal stable [4]: up to 24 h
% contribution (CYP3A4 [5]): 47.9%
CLint (CYP3A4 [5]): 0.141 µL/min/pmol
% contribution (CYP2C9): 0.0%
CLint (CYP2C9): <0.029 µL/min/pmol
IC50 (HsSrC): > 10 µM
CC50 (Cytotoxicity): 15.6 µM
EC50 (A3 [6]): > 10 µM
IC50 (A3 [6]): 43 µM
average peak concentration of M2 [7]: 7.1 ± 4.4 µM
% contribution (CYP2C19 [8]): 0.0%
CLint (CYP2C19 [8]): <0.029 µL/min/pmol
CLint scaled [9]: < 41.7 mL/min/kg
half-life [9]: > 2 h
microsomal CLint [9]: < 23.1 µL/min/mg
CLint scaled [10]: < 33.3 mL/min/kg
half-life [10]: > 2 h
microsomal CLint [10]: < 23.1 µL/min/mg
IC50 (AT2): 4.6 µM
inhibition at 10 µM (AT2; 10 μM, agonist radioligand, mean, read-out: % inhibition of control specific binding): 50.7%
CLint scaled (CYP1A2): 2.78 mL/min/kg
half-life (CYP1A2): 1 h
LM:hepatocyte CLint_scaled ratio (Hepatocyte stability; liver microsomes and primary hepatocytes): <2.5
CLint scaled (Hepatocyte stability; primary hepatocytes): 10 mL/min/kg
half-life (Hepatocyte stability; primary hepatocytes): 6.27 h
hepatocyte CLint (Hepatocyte stability; primary hepatocytes): 3.7 µL/min/1e6 cells
CLint scaled (CYP2C19 [11]): < 0.117 mL/min/kg
half-life (CYP2C19 [11]): > 4 h
agonist effect (PPARУ): no effect up to 100 μM
IC50 (PPARУ; read-out: IC50, antagonist effect): > 100 µM
inhibition at 10 µM (A3 [12]): 72.6%
